Data published in the NIST ThermoML archive (doi:10.1016/j.fluid.2015.06.016).
Numbers after ± are expanded uncertainties.

Details: 303.15 K; 101.33 kPa; Liquid; Vibrating tube method
Work on `NCCO.O=CO` [2-hydroxyethylammonium formate] yielded a mass density of 1184.46 ± 1.2 kg/m3.
With `CCCCCCCCCC` [decane] the mass density was 722.439 ± 0.28 kg/m3.
`OCC(O)CO` [glycerol] showed a mass density of 1257.13 ± 0.25 kg/m3.
For `O=S1(=O)CCCC1` [sulfolane], the mass density was 1265.75 ± 0.45 kg/m3.
`Cc1ccccc1` [toluene] gave a mass density of 857.606 ± 0.18 kg/m3.
